Measurements taken from US20090069441A1, “Motuporamine Mimic Agents” (priority 2006, published 2009).
pKi: −log10 of the molar value. Read-outs that look alike come from different tables or passages of the source.

Assays:
[1] = tested on: polyamine transporter (PAT); test: Ki for inhibition of [14C]spermidine uptake in L1210 cells; type: cell-based, mouse
Source text: In terms of Table 1, L1210 cells are mouse leukemia cells and are the gold standard in terms of evaluating polyamine cytotoxicity data due to a plethora of prior data in this cell line for other polyamine structures. Clearly 7a was similar in all respects to 4a (Table 1). […] The lower the Ki value, the higher the affinity of the drug for the polyamine transporter (PAT) on the cell surface. Chinese hamster ovary (CHO) cells and a mutant line without an active PAT (CHO-MG) also evaluated the PAT selectivity of these drugs.
L1210 IC50 and Ki studies. […] The Ki values in Table 3 were determined for [^14C]spermidine uptake and reflect the affinity of the polyamine derivative for the polyamine transporter on the cell surface. With both parameters, one can determine whether high affinity for the transporter (e.g., low Ki value) translated into high cytotoxicity (e.g., low IC50 value), etc.
Ki procedure. The ability of the conjugates to interact with the polyamine transport system was determined by measuring competition by the conjugates against radiolabeled spermidine uptake in L1210 cells. Initially, the Km value of spermidine transport was determined as previously described (Clément et al., Biochem. J. 1995, 312, 933-938). The ability of conjugates to compete for [^14C]spermidine uptake were determined in L1210 cells by a 10-min uptake assay in the presence of increasing concentrations of competitor, using 1 μM [^14C]spermidine as substrate. Ki values for inhibition of spermidine uptake were determined using the Cheng-Prusoff equation (Cheng and Prusoff, Biochem. Pharmacol. 1973, 22, 3099-3108) from the IC50 value derived by iterative curve fitting of the sigmoidal equation describing the velocity of spermidine uptake in the presence of the respective competitor (Torossian et al., Biochem. J., 1996, 319, 21-26). L1210 cells were grown and maintained according to established procedures (Bergeron et al., J. Med. Chem. 2000, 43, 224-235) and were washed twice in HBSS prior to the transport assay.

[2] = biological target: polyamine transporter (PAT); details: data originally reported in Ref; read-out: L1210 Ki value; cited from earlier work
CHO cells = details: data originally reported in Ref; cited from earlier work

NCCCCNCCCCNCc1c2ccccc2cc2ccccc12 [Compound 6b]
pKi ([1]; [14C]spermidine uptake, 10-min, 1 μM substrate, read-out: L1210 Ki values): 5.74 | pKi [2]: 5.74 | IC50 Ratio (CHO-MG/CHO), a measure of PAT selectivity (CHO cells): 148

CCN(CCCNCCCN)Cc1c2ccccc2cc2ccccc12 [Compound 7a, N-(3-Amino-propyl)-N′-anthracen-9-ylmethyl-N′-ethyl-propane-1,3-diamine]
pKi ([1]; new data, read-out: L1210 Ki value): 4.63
